tested on: CD34+CD45RA− cell; assay: Hematopoietic stem cell expansion assay (CD34+CD45RA− cell count versus DMSO vehicle cultures); format: cell-based; details: Homo sapiens, concentration that results in a 50% increase in CD34+CD45RA− cell count compared to vehicle cultures (DMSO), Table 1, pyridopyrrolopyrimidine series, read-out: Biological data EC50
Protocol: As used herein, the term “EC50” is intended to mean the concentration that results in a 50% increase in CD34+CD45RA− cell count compared to vehicle cultures (DMSO).
Screening Assay: screening assays were conducted as described in the inventors' previous patent application, WO 2013/110198.
The following biological assays were used to assess the effect of the compounds of the invention on hematopoietic stem cell expansion The results are illustrated in FIGS. 1 to 6. Culture medium: The culture medium used consisted of serum-free medium supplemented with the following recombinant cytokines: interleukin-6, thrombopoietin, Flt-3 ligand, and stem cell factor, each at a final concentration of 100 ng/ml, in the presence of vehicle (DMSO), positive control (SR1), or compound of the invention or a combination of compounds. Cell Culture: CD34+ cell purity of initial harvests was higher than 90%, as determined by flow cytometry. The CD34+ CD45RA− subpopulation reached purity levels higher than 70%. Cells were plated at 40,000 cells/ml and incubated for 7 to 12-days at 37° C. in 5% CO2. For long term cultures, 200,000 CD34+cells/ml from mobilized PB were plated with serum free media supplemented with interleukin-6, thrombopoietin, Flt3 ligand, and stem cell factor, each at a final concentration of 100 ng/ml, in the presence of vehicle (DMSO), positive control, or a compound of the invention at 500 nM.

COC(=O)c1cnc2c(c1)[nH]c1nc(Cc3ccccc3)nc(NCCCN3CCCCC3)c12 [Compound 1, methyl 2-benzyl-4-((3-(piperidin-1-yl)propyl)amino)-9H-pyrido[2′,3′:4,5]pyrrolo[2,3-d]pyrimidine-7-carboxylate] and COC(=O)c1cnc2c(c1)[nH]c1nc(Cc3ccccc3C)nc(NCCCN3CCCCC3)c12 [Compound 7, methyl 2-(2-methylbenzyl)-4-((3-(piperidin-1-yl)propyl)amino)-9H-pyrido[2′,3′:4,5]pyrrolo[2,3-d]pyrimidine-7-carboxylate] fall in the same range of EC50: 250 to 500 nM for the first, 250 to 500 nM for the second.

First: COC(=O)c1cnc2c(c1)[nH]c1nc(Cc3ccsc3)nc(NCCCN3CCCCC3)c12 [Compound 2, methyl 4-((3-(piperidin-1-yl)propyl)amino)-2-(thiophen-3-ylmethyl)-9H-pyrido[2′,3′:4,5]pyrrolo[2,3-d]pyrimidine-7-carboxylate]
Second: COC(=O)c1cnc2c(c1)[nH]c1nc(Cc3ccsc3)nc(SCCCN3CCCCC3)c12 [Compound 3, methyl 4-((3-(piperidin-1-yl)propyl)thio)-2-(thiophen-3-ylmethyl)-9H-pyrido[2′,3′:4,5]pyrrolo[2,3-d]pyrimidine-7-carboxylate]
The EC50 of the first is lower: 250 to 500 nM for the first, 500 to 1000 nM for the second.

Compared with COC(=O)c1cnc2c(c1)[nH]c1nc(Cc3cccc(OC)c3)nc(NCCCN3CCCCC3C)c12 (stereo not shown) [Compound 4, methyl 2-(3-methoxybenzyl)-4-((3-(2-methylpiperidin-1-yl)propyl)amino)-9H-pyrido[2′,3′:4,5]pyrrolo[2,3-d]pyrimidine-7-carboxylate], COC(=O)c1cnc2c(c1)[nH]c1nc(Cc3cccc(F)c3)nc(NCCCN3CCCCC3)c12 [Compound 11, methyl 2-(3-fluorobenzyl)-4-((3-(piperidin-1-yl)propyl)amino)-9H-pyrido[2′,3′:4,5]pyrrolo[2,3-d]pyrimidine-7-carboxylate] is higher in EC50: 250 to 500 nM for the first, over 1000 nM for the second.

First: CCN(CC)CCNc1nc(Cc2cccc(OC)c2)nc2[nH]c3cc(C(=O)OC)cnc3c12 [Compound 5, methyl 4-((2-(diethylamino)ethyl)amino)-2-(3-methoxybenzyl)-9H-pyrido[2′,3′:4,5]pyrrolo[2,3-d]pyrimidine-7-carboxylate]
Second: CNCCCNc1nc(Cc2cccc(F)c2)nc2[nH]c3cc(C(=O)OC)cnc3c12 [Compound 13]
The EC50 of the first is lower: 500 to 1000 nM for the first, over 1000 nM for the second.

First: COC(=O)c1cnc2c(c1)[nH]c1nc(Cc3ccccc3)nc(N(C)CCCN3CCCCC3)c12 [Compound 6, methyl 2-benzyl-4-(methyl(3-(piperidin-1-yl)propyl)amino)-9H-pyrido[2′,3′:4,5]pyrrolo[2,3-d]pyrimidine-7-carboxylate]
Second: COC(=O)c1cnc2c(c1)[nH]c1nc(Cc3ccccc3C)nc(NCCCN3CCCC3)c12 [Compound 8, methyl 2-(2-methylbenzyl)-4-((3-(pyrrolidin-1-yl)propyl)amino)-9H-pyrido[2′,3′:4,5]pyrrolo[2,3-d]pyrimidine-7-carboxylate]
The EC50 of the first is lower: under 100 nM for the first, 250 to 500 nM for the second. The first is the more potent here.

CNCCCNc1nc(Cc2ccccc2C)nc2[nH]c3cc(C(=O)OC)cnc3c12 [Compound 9, methyl 4-((3-(methylamino)propyl)amino)-2-(2-methylbenzyl)-9H-pyrido[2′,3′:4,5]pyrrolo[2,3-d]pyrimidine-7-carboxylate] and COC(=O)c1cnc2c(c1)[nH]c1nc(Cc3ccccc3)nc(NCC(C)CN(C)C)c12 (stereo not shown) [Compound 14, methyl 2-benzyl-4-((3-(dimethylamino)-2-methylpropyl)amino)-9H-pyrido[2′,3′:4,5]pyrrolo[2,3-d]pyrimidine-7-carboxylate] fall in the same range of EC50: 500 to 1000 nM for the first, 500 to 1000 nM for the second.

Compared with Cn1nnc(-c2cnc3c(c2)[nH]c2nc(Cc4ccccc4)nc(N[C@H]4CC[C@H](N)CC4)c23)n1 [Compound 10, (1R,4R)—N^1-(2-benzyl-7-(2-methyl-2H-tetrazol-5-yl)-9H-pyrido[2′,3′:4,5]pyrrolo[2,3-d]pyrimidin-4-yl)cyclohexane-1,4-diamine], COC(=O)c1cnc2c(c1)[nH]c1nc(Cc3ccccc3)nc(N3CCC(N(C)C)CC3)c12 [Compound 15, methyl 2-benzyl-4-(4-(dimethylamino)piperidin-1-yl)-9H-pyrido[2′,3′:4,5]pyrrolo[2,3-d]pyrimidine-7-carboxylate] is lower in EC50: 250 to 500 nM for the first, 100 to 250 nM for the second.

COC(=O)c1cnc2c(c1)[nH]c1nc(Cc3cccc(F)c3)nc(NCCCN(C)CCCN)c12 [Compound 12, methyl 4-((3-((3-aminopropyl)(methyl)amino)propyl)amino)-2-(3-fluorobenzyl)-9H-pyrido[2′,3′:4,5]pyrrolo[2,3-d]pyrimidine-7-carboxylate] and CCN(CC)CCN(CC)c1nc(Cc2ccccc2)nc2[nH]c3cc(C(=O)OC)cnc3c12 [Compound 16, methyl 2-benzyl-4-((2-(diethylamino)ethyl)(ethyl)amino)-9H-pyrido[2′,3′:4,5]pyrrolo[2,3-d]pyrimidine-7-carboxylate] fall in the same range of EC50: 250 to 500 nM for the first, 250 to 500 nM for the second.

same assay, conditions: Homo sapiens, concentration that results in a 50% increase in CD34+CD45RA− cell count compared to vehicle cultures (DMSO), Table 1′, pyrido[4,3-b]indole series, read-out: Biological data EC50

Compared with COC(=O)c1ccc2c(c1)[nH]c1ccnc(NCCCN3CCCCC3)c12 [1′, methyl 1-((3-(piperidin-1-yl)propyl)amino)-5H-pyrido[4,3-b]indole-7-carboxylate], COC(=O)c1ccc2c(c1)[nH]c1cc(Cc3ccsc3)nc(NCCCN3CCCCC3)c12 [10′, methyl 1-((3-(piperidin-1-yl)propyl)amino)-3-(thiophen-3-ylmethyl)-5H-pyrido[4,3-b]indole-7-carboxylate] is lower in EC50: over 1000 nM for the first, 100 to 250 nM for the second. The second is the more potent here.

COC(=O)c1ccc2c(c1)[nH]c1cc(Cc3ccccc3)nc(NCCCN3CCCCC3)c12 [2′, methyl 3-benzyl-1-((3-(piperidin-1-yl)propyl)amino)-5H-pyrido[4,3-b]indole-7-carboxylate] and COC(=O)c1ccc2c(c1)[nH]c1cc(Cc3ccccc3)nc(NCCN3CCCC3)c12 [3′, methyl 3-benzyl-1-((2-(pyrrolidin-1-yl)ethyl)amino)-5H-pyrido[4,3-b]indole-7-carboxylate] cannot be ordered by EC50: under 100 nM for the first, under 100 nM for the second.

First: COC(=O)c1ccc2c(c1)[nH]c1cc(Cc3ccccc3)nc(N(C)CCCN(C)C)c12 [4′, methyl 3-benzyl-1-((3-(dimethylamino)propyl)(methyl)amino)-5H-pyrido[4,3-b]indole-7-carboxylate]
Second: CNCCCN(C)c1nc(Cc2cccnc2)cc2[nH]c3cc(C(=O)OC)ccc3c12 [12′, methyl 1-(methyl(3-(methylamino)propyl)amino)-3-(pyridin-3-ylmethyl)-5H-pyrido[4,3-b]indole-7-carboxylate]
The EC50 of the first is lower: under 100 nM for the first, over 1000 nM for the second.

Compared with Cn1nnc(-c2ccc3c(c2)[nH]c2cc(Cc4ccccc4)nc(NCCCN4CCCCC4)c23)n1 [5′, 3-benzyl-7-(2-methyl-2H-tetrazol-5-yl)-N-(3-(piperidin-1-yl)propyl)-5H-pyrido[4,3-b]indol-1-amine], COC(=O)c1ccc2c(c1)[nH]c1cc(Cc3cccc(O)c3)nc(NCCCCN3CCCC3)c12 [7′, methyl 3-(3-hydroxybenzyl)-1-((4-(pyrrolidin-1-yl)butyl)amino)-5H-pyrido[4,3-b]indole-7-carboxylate] is lower in EC50: 100 to 250 nM for the first, under 100 nM for the second.

First: COC(=O)c1ccc2c(c1)[nH]c1cc(Cc3cccc(OC)c3)nc(NCCCCN3CCCC3)c12 [6′, methyl 3-(3-methoxybenzyl)-1-((4-(pyrrolidin-1-yl)butyl)amino)-5H-pyrido[4,3-b]indole-7-carboxylate]
Second: COC(=O)c1ccc2c(c1)[nH]c1cc(Cc3cccnc3)nc(NCCCN3CCOCC3)c12 [9′, methyl 1-((3-morpholinopropyl)amino)-3-(pyridin-3-ylmethyl)-5H-pyrido[4,3-b]indole-7-carboxylate]
The EC50 of the first is lower: under 100 nM for the first, 500 to 1000 nM for the second. The first is the more potent here.

Compared with COC(=O)c1ccc2c(c1)[nH]c1cc(Cc3ccsc3)nc(NCCN(C)CCNC(=O)OC(C)(C)C)c12 [8′, methyl 1-((2-((2-((tert-butoxycarbonyl)amino)ethyl)(methyl)amino)ethyl)amino)-3-(thiophen-3-ylmethyl)-5H-pyrido[4,3-b]indole-7-carboxylate], COC(=O)c1ccc2c(c1)[nH]c1cc(Cc3ccsc3)nc(NCCN(C)CCN)c12 [14′, methyl 1-((2-((2-aminoethyl)(methyl)amino)ethyl)amino)-3-(thiophen-3-ylmethyl)-5H-pyrido[4,3-b]indole-7-carboxylate] is lower in EC50: over 1000 nM for the first, 250 to 500 nM for the second. The second is the more potent here.

First: COC(=O)c1ccc2c(c1)[nH]c1cc(Cc3cccnc3)nc(N3CCC(N4CCCC4)CC3)c12 [11′, methyl 3-(pyridin-3-ylmethyl)-1-(4-(pyrrolidin-1-yl)piperidin-1-yl)-5H-pyrido[4,3-b]indole-7-carboxylate]
Second: COC(=O)c1ccc2c(c1)[nH]c1cc(Cc3ccsc3)nc(N[C@H]3CC[C@H](N)CC3)c12 [13′, methyl 1-(((1r,4r)-4-aminocyclohexyl)amino)-3-(thiophen-3-ylmethyl)-5H-pyrido[4,3-b]indole-7-carboxylate]
The EC50 of the first is higher: over 1000 nM for the first, 100 to 250 nM for the second.

COC(=O)c1ccc2c(c1)[nH]c1cc(Cc3ccsc3)nc(NCCC[N+]3(CC(N)=O)CCCCC3)c12 [15′, 1-(2-amino-2-oxoethyl)-1-(3-((7-(methoxycarbonyl)-3-(thiophen-3-ylmethyl)-5H-pyrido[4,3-b]indol-1-yl)amino)propyl)piperidin-1-ium iodide] was tested, and the EC50 was under 100 nM.

Reference: patent US10647718B2, “Compounds and use thereof in the expansion of hematopoietic stem cells and/or hematopoietic progenitor cells” (UNIVERSITÉ DE MONTRÉAL, priority 2014, dated 2020)
